Source: US8871751B2, “Compositions and methods relating to nuclear hormone and steroid hormone receptors including inhibitors of estrogen receptor alpha-mediated gene expression and inhibition of breast cancer” (The Board of Trustees of the University of Illinois, priority 2008, dated 2014)
Entries after “also recorded” stand apart in the source; their conditions may differ.

Tests used:
NF-κB = test: NF-κB-mediated induction of IL-8 mRNA by TNF-α in MCF-7 cells; type: cell-based, human
Protocol: FIG. 14 illustrates results of testing for specific inhibition of E2-ERα-mediated gene expression. The effects of TPSF on an NF-κB regulated gene, IL-8, were tested in MCF-7 cells maintained for 24 hours in medium containing 10 ng/ml TNF-α alone or TNF-α and 30 μM TPSF. RNA was extracted and IL-8 mRNA levels were measured by quantitative (q)RT-PCR. Data shown is the average of 3 experiments±SEM.
(§1) Endogenous Gene Expression. MCF-7 cells or MCF7ERαHA cells were maintained for 4 days in medium containing 5% CD calf serum (MCF-7 cells) or 10% 6×CD-FBS (MCF7ERαHA cells). In assays of TPSF inhibition of PI-9 induction, cells were plated, incubated for 24 hours in the indicated concentrations of TPSF and then maintained 4 hours with and without E2, with and without TPSF. To induce ERα, MCF7ERαHA cells were also maintained in 0.5 μg/ml Dox for 24 hours prior to addition of E2 or OHT with or without TPSF. For induction of cyclin D1, 24 hours after plating the cells, E2 with and without TPSF was added, the cells were maintained for 24 hours, RNA was extracted and mRNA levels were determined by quantitative RT-PCR as described (19, 26). Actin mRNA levels were used as the qRT-PCR internal standard. The primers and sequences used in qRT-PCR were as follows.

ERα [1] = molecular target: T1, ERα (Homo sapiens, UniProt P03372); test: Endogenous PI-9 mRNA induction in MCF-7 cells (qRT-PCR); type: cell-based; parameters: endogenous in cells; conditions: 10 nM E2, read-out: IC50 for inhibition of E2-ERα induction of endogenous PI-9 mRNA (Endog. PI-9)
T1 sequence (P03372 1-595): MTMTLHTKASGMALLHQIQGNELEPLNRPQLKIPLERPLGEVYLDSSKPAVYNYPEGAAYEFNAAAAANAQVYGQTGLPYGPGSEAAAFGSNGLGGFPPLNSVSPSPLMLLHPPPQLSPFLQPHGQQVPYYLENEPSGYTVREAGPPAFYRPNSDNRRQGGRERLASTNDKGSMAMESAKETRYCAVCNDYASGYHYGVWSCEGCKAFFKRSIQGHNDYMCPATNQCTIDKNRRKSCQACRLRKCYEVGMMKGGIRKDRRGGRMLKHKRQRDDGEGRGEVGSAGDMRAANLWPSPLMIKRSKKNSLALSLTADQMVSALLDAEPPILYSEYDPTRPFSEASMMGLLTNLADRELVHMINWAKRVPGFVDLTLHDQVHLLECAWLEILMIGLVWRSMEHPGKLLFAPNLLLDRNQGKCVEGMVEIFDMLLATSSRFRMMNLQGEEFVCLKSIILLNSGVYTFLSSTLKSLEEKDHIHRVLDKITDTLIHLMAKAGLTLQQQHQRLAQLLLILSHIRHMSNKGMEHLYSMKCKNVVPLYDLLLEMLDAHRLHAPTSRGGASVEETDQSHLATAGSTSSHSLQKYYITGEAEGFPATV
Protocol: as §1

ERα [2] = molecular target: T1, ERα; test: (ERE)3-luciferase reporter gene assay in T47D-KBluc cells; type: cell-based; parameters: Using a stably transfected breast cancer cell line that expresses endogenous ERα; endogenous in cells; host or cells: T47D-KBluc
ERα [3] = molecular target: T1, ERα; test: Estrogen induction of cyclin D1 mRNA in MCF-7 cells; type: cell-based; parameters: endogenous in cells; conditions: 10 μM, 10 nM E2, 24 h
Protocol: FIG. 15 illustrates results of testing for inhibition of the estrogen induction of Cyclin D1 mRNA. MCF-7 cells were plated and 24 h later treated with ethanol vehicle, 10 nM E2, or 10 nM E2 and 10 μM TPSF. Cells were maintained for 24 hours, RNA was extracted and cyclin D1 mRNA levels were measured by qRT-PCR. Cyclin D1 mRNA levels in the vehicle only sample were set to 1. Data is the average±SEM for 3 experiments each assayed in triplicate.
as §1

ERα [4] = molecular target: T1, ERα; test: pS2 mRNA induction in MCF7ERαHA cells; type: cell-based; parameters: endogenous in cells; conditions: 10 μM, Dox, 100 pM E2, 24 h
Description: A model for tamoxifen-resistant breast cancers that overexpress ERα is MCF7ERαHA cells, which is a tetracycline-inducible MCF-7 model in which doxycycline (Dox) induces overexpression of ERα (40,41). In contrast to MCF-7 cells, in these cells Tam and OHT are potent agonists (2,42) and OHT, which stabilizes ERα, induced proteinase inhibitor 9 (PI-9) mRNA and protein more effectively than E2 (2,43). MCF7ERαHA cells were maintained in 10% 6XCD-treated FBS (40,41). All cells were in 0.1% DMSO vehicle and contained the indicated concentrations of TPBM added at the same time as the E2 or OHT. To induce PI-9 mRNA, the cells were treated with 0.5 μg/ml doxycycline to induce ERα and ethanol vehicle, 100 pM E2 or 500 pM OHT for 24 h, mRNA was extracted and PI-9 mRNA levels were determined by quantitative RT-PCR as described (2).
Saturating E2 (100 pM, FIG. 7A) and OHT (500 pM, FIG. 7B) induced PI-9 mRNA by 150 and 500 fold, respectively. […] The less complete inhibition of PI-9 induction in the OHT-treated cells likely results from the ˜4 fold higher level of ERα after OHT treatment than after E2 treatment (FIG. 7C). The PI-9 gene is representative of the many genes that contain complex estrogen response elements including ERE half sites. To confirm that TPBM inhibits expression of an endogenous gene that contains a near consensus ERE we used the pS2 gene. […]

Row | Structure (SMILES) | effect on NF-κB-mediated induction of IL-8 mRNA by TNF-α (NF-κB; 30 μM, 10 ng/ml TNF-α, 24 h) | IC50 (NF-κB; Homo sapiens, MCF7, TNF-α, IL-8 mRNA, read-out: IC50 for inhibition of NF-κB gene expression) [µM] | IC50 (ERα [1]) [nM] | IC50 (ERα [2]; 0.2 nM E2, 24 h, read-out: IC50 for inhibition of E2-ERα-mediated (ERE)3-luciferase expression) [nM] | IC50 (ERα [2]; 100 nM E2, 24 h, read-out: IC50 for inhibition of E2-ERα-mediated (ERE)3-luciferase expression (ERE-Luc)) [nM] | effect on E2 induction of cyclin D1 mRNA (ERα [3]) | reduction of induction of pS2 mRNA (ERα [4]) [%] | induction of pS2 mRNA (ERα [4]; 24±3 fold without TPBM) [fold]
1 | Cn1c(=S)c2[nH]c(SCCCC(=O)c3ccc(F)cc3)nc2n(C)c1=O [TPSF, Butyrophenone, p-fluoro-4-(1,2,3,6,-tetrahydro-1,3-dimethyl-2-oxo-6-thionopurin-8-ylthio)] | no effect; also recorded: absence of an effect | > 30 | 200 | 400 | 700 | completely inhibited; also recorded: abolished |  | 
2 | Cn1c(=O)c2nc(CSCc3ccccc3)[nH]c2n(C)c1=O [Compound 95910, 8-Benzylsulfanylmethyl-1,3-dimethyl-3,7-dihydro-purine-2,6-dione] |  |  |  |  |  |  | 50 | 12±2
